Assay results as given in patent US4504478A, “Cephalosporin-1-oxide derivatives” (Imperial Chemical Industries PLC, priority 1982, dated 1985).

What was measured:
Experiment in all cases: MIC by agar-dilution, in vitro antibacterial test
Type in all cases: cell-based
Salmonella dublin = settings: Code No. A20, Jewell and Pearmain agar medium, inoculum ~10^5 CFU
Description: (§1) As noted above the cephalosporin derivative of the invention has antibacterial properties, having a broad spectrum of activity in vitro against standard laboratory microorganisms, both Gram-negative and Gram-positive, which are used to screen for activity against pathogenic bacteria. The antibacterial spectrum and potency of a particular compound may be determined in a standard test system.
(§2) The results set out in the following Table of the compound described in Example 1 are illustrative of the biological activity of the compounds of the present invention. The results are those obtained on a standard in vitro test system using Jewell and Pearmain agar medium. The antibacterial activity is described in terms of the minimum inhibitory concentration (MIC) determined by agar - dilution technique with an inoculum size of ~10^5 CFU.

K. aerogenes = settings: Code No. A10, Jewell and Pearmain agar medium, inoculum ~10^5 CFU
Description: as §1, §2

Proteus mirabilis = settings: Code No. A18, Jewell and Pearmain agar medium, inoculum ~10^5 CFU
Description: as §1, §2

Staph. aureus = settings: Code No. A6, Jewell and Pearmain agar medium, inoculum ~10^5 CFU
Description: as §1, §2

Ent. cloacae = settings: Code No. A13, Jewell and Pearmain agar medium, inoculum ~10^5 CFU
Description: as §1, §2

Strep. pyrogenes = settings: Code No. A1, Jewell and Pearmain agar medium, inoculum ~10^5 CFU
Description: as §1, §2

Serratia marescens = settings: Code No. A16, Jewell and Pearmain agar medium, inoculum ~10^5 CFU
Description: as §1, §2

E. coli = settings: Code No. A8, Jewell and Pearmain agar medium, inoculum ~10^5 CFU
Description: as §1, §2

Ps. aeruginosa = settings: Code No. A21, Jewell and Pearmain agar medium, inoculum ~10^5 CFU
Description: as §1, §2

CC(=O)OCC1=C(C(=O)O)N2C(=O)C(Nc3ncc[nH]3)C2[S+]([O-])C1.O=C(O)C(F)(F)F (stereo not drawn) [Example 1, 3-acetoxymethyl-7-(imidazol-2-yl)aminoceph-3-em-1β-oxide-4-carboxylicacid trifluoroacetate]
minimum inhibitory concentration (MIC) (Salmonella dublin): 1 µg/mL
minimum inhibitory concentration (MIC) (K. aerogenes): 4 µg/mL
minimum inhibitory concentration (MIC) (Proteus mirabilis): > 128 µg/mL
minimum inhibitory concentration (MIC) (Staph. aureus): > 128 µg/mL
minimum inhibitory concentration (MIC) (Ent. cloacae): 2 µg/mL
minimum inhibitory concentration (MIC) (Strep. pyrogenes): 64 µg/mL
minimum inhibitory concentration (MIC) (Serratia marescens): 64 µg/mL
minimum inhibitory concentration (MIC) (E. coli): 2 µg/mL
minimum inhibitory concentration (MIC) (Ps. aeruginosa): > 128 µg/mL
